The values below come from US20250057958A1, “CYTOTOXICITY TARGETING CHIMERAS FOR CCR2-EXPRESSING CELLS” (GLAXOSMITHKLINE INTELLECTUAL PROPERTY DEVELOPMENT LIMITED, priority 2022, published 2025).

For experiment [1], the target named is human alpha1 nicotinic acetylcholine (nACh) receptor (Homo sapiens, UniProt P02708+Q07001). The experiment in a line: Nicotinic acetylcholine receptor antagonism assay (IONFlux automated patch clamp). The format is cell-based. The note with it: for IC50: nAChR antagonism, stimulated with ACh, average if more than one run. From the text:
Cells expressing human alpha1 nicotinic acetylcholine (nACh) receptor (nAChR) were washed and dissociated using Trypsin containing buffer. Cells were then washed and seeded at a density of 3-5 million cells/mL and allowed to grow for 3 days. […] The receptor was then stimulated via addition of acetylcholine (ACh) and activation of the receptor was monitored via the IONFlux automated patch clamp system. IonFlux Data Analyzer software was utilized to perform leak subtraction and measure (min) peak current amplitude.
Data processing: (1) Current values recorded for vehicle only applications in individual traps/patterns were subtracted from corresponding current amplitude values for control, test article and control+test article. (2) Control response was calculated as % of the average response of the 3rd out of total 3 ACh (10 mM) applications alone. In rare situations, if the 3rd ACh response was obscured due to technical artifacts, the 2nd and/or 1st ACh (10 mM) application was considered as control. The peak current amplitude generated in the presence of each test article concentration was then used to calculate the % inhibition as compared to control response (10 mM ACh alone). These estimates were further corrected for vehicle response and run down corrected by normalizing with time matched control responses (10 mM ACh alone). The corrected percentages were then fit with a non-linear function in GraphPad Prism 6 (or later versions) to determine the IC50.
Exclusion criteria: (i) any n's with poor recording quality, (ii) control current amplitude <500 pA or (iii) significant outliers, as determined by the Grubbs' test.
ARMs compounds of Formula (I) of the invention were tested for antagonism of the nAChR in the above assay in […] experimental runs and the results are shown in Table 5 below. Antagonistic activity of the compounds of Formula (I) of the invention is reported as an IC50 value (half maximal inhibitory concentration) and the maximum percentage antagonism observed at the highest concentration of compound of Formula (I) tested, as indicated in Table 5. For compounds tested in more than one experimental run, the IC50 value is reported as an average.
(The patch-clamp technique gives a direct electrical read-out from membranes.)

Experiment [2] addresses T1, CHOK1 cells engineered to overexpress human CCR2 (Homo sapiens, UniProt P41597).
T1 construct: expressed in transfected cells; host or cells: CHOK1 cells
The experiment in a line: Antibody dependent cellular cytotoxicity (ADCC) reporter assay. The note with it: with anti-cotinine antibody (SEQ ID NO: 11/12, human IgG1 Fc S239D/I332E); Jurkat FcγRIIIa NFAT-luciferase reporter cells; 12-18 hours; average if more than one run; read-out: ADCC Reporter Assay pEC50 (converted). It is filed as cell-based. How it is done: An antibody dependent cellular cytoxocity reporter assay was conducted using the following four assay components: (i) ARM compound of Formula (I) targeting CCR2 (concentrations ranging from 1 pM to 10 μM) (ii) anti-cotinine antibody having a heavy chain sequence of SEQ ID NO: 11 and a light chain sequence of SEQ ID NO: 12 (rabbit variable region with human IgG1 Fc domain containing a DE mutation (S239D/I332E)) (concentrations ranging from 0.01 μg/mL to 200 μg/mL); (iii) target cells: CHOK1 cells engineered to overexpress either human CCR2 (typically 1000-20,000 cells perwell) and (iv) reporter cells: Jurkat cells engineered to express FcγRIIIa with the reporter gene luciferase under the control of the NFAT promoter (typically 3000-75,000 cells per well). Reagents were combined in a final volume of 20 μL in a 384—well tissue culture treated plate. All four assay components were incubated together for about 12-18 hours. Thereafter, BioGlo Detection reagent (Promega) was added to the wells to lyse the cells and provide a substrate for the luciferase reporter protein. Luminescence signal was measured on a microplate reader and signal:background was calculated by dividing the signal of a test well by the signal obtained when no ARM compound of Formula (I) was added. EC50 calculations were done using Graphpad Prism Software, specifically a nonlinear regression curve fit (Y=Bottom+(Top−Bottom)/(1+10 ^((Log EC50−X)*HillSlope))).
ARMs compounds of Formula (I) of the invention were tested for ADCC activity in the above assay in or more experimental runs and the results are shown in Table 3 below. Potency of the compounds of Formula (I) of the invention is reported as a pEC50 value. The pEC50 value is the negative log of the EC50 value, wherein the EC50 value is the half maximal effective concentration measured in molar (M). For compounds tested in more than one experimental run, the pEC50 value is reported as an average.
(In general: Reporter assays use an easily measured gene product as a stand-in for the process of interest.)

[3] abbreviates: maximum percentage antagonism at highest concentration tested, read-out: Maximum Response (%).

Molecules are shown by their SMILES.

human alpha1 nicotinic acetylcholine (nACh) receptor, sequence (P02708 21-457): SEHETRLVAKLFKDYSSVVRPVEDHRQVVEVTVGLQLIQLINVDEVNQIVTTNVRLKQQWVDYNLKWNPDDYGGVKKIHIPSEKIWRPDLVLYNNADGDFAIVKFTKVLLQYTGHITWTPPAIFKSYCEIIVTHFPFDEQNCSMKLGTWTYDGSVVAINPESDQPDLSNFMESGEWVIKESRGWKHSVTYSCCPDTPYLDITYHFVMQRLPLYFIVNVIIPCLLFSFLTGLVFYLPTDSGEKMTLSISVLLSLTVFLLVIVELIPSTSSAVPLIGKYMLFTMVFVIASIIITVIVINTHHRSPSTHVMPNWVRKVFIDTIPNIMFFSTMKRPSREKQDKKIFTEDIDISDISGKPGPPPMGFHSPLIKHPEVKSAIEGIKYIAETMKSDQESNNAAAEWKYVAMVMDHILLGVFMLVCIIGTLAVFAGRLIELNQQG
human alpha1 nicotinic acetylcholine (nACh) receptor, sequence (P11230 24-501 partner): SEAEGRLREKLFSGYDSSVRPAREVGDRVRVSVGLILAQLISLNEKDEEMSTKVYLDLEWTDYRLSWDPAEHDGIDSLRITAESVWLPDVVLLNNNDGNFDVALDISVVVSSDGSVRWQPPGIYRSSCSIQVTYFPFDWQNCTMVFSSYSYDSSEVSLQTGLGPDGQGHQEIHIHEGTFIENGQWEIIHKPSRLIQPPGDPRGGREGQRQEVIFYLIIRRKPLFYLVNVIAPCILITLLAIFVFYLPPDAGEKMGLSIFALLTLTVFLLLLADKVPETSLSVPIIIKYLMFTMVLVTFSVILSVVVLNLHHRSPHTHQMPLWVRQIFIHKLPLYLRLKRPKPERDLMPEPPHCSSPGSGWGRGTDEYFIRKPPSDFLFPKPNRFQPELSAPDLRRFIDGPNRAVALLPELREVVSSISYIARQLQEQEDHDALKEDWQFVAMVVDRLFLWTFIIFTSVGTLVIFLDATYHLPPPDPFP
human alpha1 nicotinic acetylcholine (nACh) receptor, sequence (Q07001 22-517): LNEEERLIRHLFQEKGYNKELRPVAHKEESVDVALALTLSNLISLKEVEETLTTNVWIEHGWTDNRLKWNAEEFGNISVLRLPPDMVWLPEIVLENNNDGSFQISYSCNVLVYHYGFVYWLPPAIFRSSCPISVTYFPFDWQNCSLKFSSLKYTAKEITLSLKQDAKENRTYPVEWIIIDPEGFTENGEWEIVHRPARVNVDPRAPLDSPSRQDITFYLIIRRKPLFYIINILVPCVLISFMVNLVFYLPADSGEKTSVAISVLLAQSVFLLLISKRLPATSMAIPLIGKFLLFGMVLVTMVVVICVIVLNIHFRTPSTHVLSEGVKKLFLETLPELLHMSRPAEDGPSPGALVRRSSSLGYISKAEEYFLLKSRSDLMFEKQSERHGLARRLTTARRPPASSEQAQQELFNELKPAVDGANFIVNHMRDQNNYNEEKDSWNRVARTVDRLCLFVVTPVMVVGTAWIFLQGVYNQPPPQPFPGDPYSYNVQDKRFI

What is called IC50 is the concentration needed to halve the response being measured. Lower therefore signals higher potency. Take `CC(=O)N[C@@H]1C[C@H](NC(C)(C)C)CC[C@@H]1N1CC[C@H](Nc2nc(NCC3CCN(C(=O)[C@H]4CC[C@H](NC(=O)CCCO[C@H]5CC[C@H](OCCNC(=O)[C@H]6CC(=O)N(C)[C@@H]6c6cccnc6)CC5)CC4)CC3)nc3ccc(C(F)(F)F)cc23)C1=O` [Example 2, (2S,3S)-N-(2-(((1R,4S)-4-(4-(((1S,4R)-4-(4-(((4-(((S)-1-((1S,2R,4R)-2-Acetamido-4-(tert-butylamino)cyclohexyl)-2-oxopyrrolidin-3-yl)amino)-6-(trifluoromethyl)quinazolin-2-yl)amino)methyl)piperidine-1-carbonyl)cyclohexyl)amino)-4-oxobutoxy)cyclohexyl)oxy)ethyl)-1-methyl-5-oxo-2-(pyridin-3-yl)pyrrolidine-3-carboxamide]: the Emax at 11.11 µM in experiment [1] (maximum percentage antagonism at highest concentration tested, 11.11 μM, read-out: Maximum Response (%)) came out at 9%. Further, the half-inhibitory concentration (IC50) in experiment [1] was greater than 11100 nM. Also, the EC50 in experiment [2] is 0.316 nM.
With `CC(=O)N[C@@H]1C[C@H](NC(C)(C)C)CC[C@@H]1N1CC[C@H](Nc2nc(CCNC(=O)[C@H]3CC[C@H](NC(=O)CCCO[C@H]4CC[C@H](OCCNC(=O)[C@H]5CC(=O)N(C)[C@@H]5c5cccnc5)CC4)CC3)nc3ccc(C(F)(F)F)cc23)C1=O` [Example 4, (2S,3S)-N-(2-(((1R,4S)-4-(4-(((1S,4R)-4-((2-(4-(((S)-1-((1S,2R,4R)-2-Acetamido-4-(tert-butylamino)cyclohexyl)-2-oxopyrrolidin-3-yl)amino)-6-(trifluoromethyl)quinazolin-2-yl)ethyl)carbamoyl)cyclohexyl)amino)-4-oxobutoxy)cyclohexyl)oxy)ethyl)-1-methyl-5-oxo-2-(pyridin-3-yl)pyrrolidine-3-carboxamide], the Emax at 100 µM in experiment [1] (setting [3]) turned out to be 48%. In experiment [1], this compound showed an IC50 greater than 100000 nM. In experiment [2], the EC50 is 0.251 nM.
Consider `CC(=O)N[C@@H]1C[C@H](N(C)C(C)C)CC[C@@H]1N1CC[C@H](Nc2nc(CCCNC(=O)[C@H]3CC[C@H](NC(=O)CCCO[C@H]4CC[C@H](OCCNC(=O)[C@H]5CC(=O)N(C)[C@@H]5c5cccnc5)CC4)CC3)nc3ccc(C(F)(F)F)cc23)C1=O` [Example 6, (2S,3S)-N-(2-(((1R,4S)-4-(4-(((1S,4R)-4-((3-(4-(((S)-1-((1S,2R,4R)-2-Acetamido-4-(isopropyl(methyl)amino)cyclohexyl)-2-oxopyrrolidin-3-yl)amino)-6-(trifluoromethyl)quinazolin-2-yl)propyl)carbamoyl)cyclohexyl)amino)-4-oxobutoxy)cyclohexyl)oxy)ethyl)-1-methyl-5-oxo-2-(pyridin-3-yl)pyrrolidine-3-carboxamide], for which, in experiment [1] (maximum percentage antagonism at highest concentration tested, 33.3 μM, read-out: Maximum Response (%)), the Emax at 33.3 µM worked out at 48%. Further, the IC50 in experiment [1] is greater than 33300 nM. Moreover, the EC50 in experiment [2] was 0.158 nM.
For the compound `CC(=O)N[C@@H]1C[C@H](NC(C)(C)C)CC[C@@H]1N1CC[C@H](Nc2nc(C3CCN(C(=O)[C@H]4CC[C@H](NC(=O)CCCO[C@H]5CC[C@H](OCCNC(=O)[C@H]6CC(=O)N(C)[C@@H]6c6cccnc6)CC5)CC4)CC3)nc3ccc(C(F)(F)F)cc23)C1=O` [Example 9, (2S,3S)-N-(2-(((1R,4S)-4-(4-(((1S,4R)-4-(4-(4-(((S)-1-((1S,2R,4R)-2-Acetamido-4-(tert-butylamino)cyclohexyl)-2-oxopyrrolidin-3-yl)amino)-6-(trifluoromethyl)quinazolin-2-yl)piperidine-1-carbonyl)cyclohexyl)amino)-4-oxobutoxy)cyclohexyl)oxy)ethyl)-1-methyl-5-oxo-2-(pyridin-3-yl)pyrrolidine-3-carboxamide], the Emax at 11.1 µM in experiment [1] (maximum percentage antagonism at highest concentration tested, 11.1 μM, read-out: Maximum Response (%)) was 2%. Also, the half-maximal inhibitory concentration (IC50) in experiment [1] was greater than 11100 nM. For the same compound, in experiment [2], the EC50 is 0.631 nM.
Turning to `CC(=O)N[C@@H]1C[C@H](NC(C)(C)C)CC[C@@H]1N1CC[C@H](Nc2nc(NC3CCN(C(=O)[C@H]4CC[C@H](NC(=O)CCCO[C@H]5CC[C@H](OCCNC(=O)[C@H]6CC(=O)N(C)[C@@H]6c6cccnc6)CC5)CC4)CC3)nc3ccc(C(F)(F)F)cc23)C1=O` [Example 13, (2S,3S)-N-(2-(((1R,4S)-4-(4-(((1S,4R)-4-(4-((4-(((S)-1-((1S,2R,4R)-2Acetamido-4-(tert-butylamino)cyclohexyl)-2-oxopyrrolidin-3-yl)amino)-6-(trifluoromethyl)quinazolin-2-yl)amino)piperidine-1-carbonyl)cyclohexyl)amino)-4-oxobutoxy)cyclohexyl)oxy)ethyl)-1-methyl-5-oxo-2-(pyridin-3-yl)pyrrolidine-3-carboxamide], the Emax at 33.33 µM in experiment [1] (maximum percentage antagonism at highest concentration tested, 33.33 μM, read-out: Maximum Response (%)) was found to be 68%. In addition, in experiment [1], the IC50 amounted to 10100 nM. For the same compound, the EC50 in experiment [2] was 0.316 nM.
Consider `CC(=O)N[C@@H]1C[C@H](NC(C)(C)C)CC[C@@H]1N1CC[C@H](Nc2nc(COCCNC(=O)[C@H]3CC[C@H](NC(=O)CCCO[C@H]4CC[C@H](OCCNC(=O)[C@H]5CC(=O)N(C)[C@@H]5c5cccnc5)CC4)CC3)nc3ccc(C(F)(F)F)cc23)C1=O` [Example 14, (2S,3S)-N-(2-(((1R,4S)-4-(4-(((1S,4R)-4-((2-((4-(((S)-1-((1S,2R,4R)-2-acetamido-4-(tert-butylamino)cyclohexyl)-2-oxopyrrolidin-3-yl)amino)-6-(trifluoromethyl)quinazolin-2-yl)methoxy)ethyl)carbamoyl)cyclohexyl)amino)-4-oxobutoxy)cyclohexyl)oxy)ethyl)-1-methyl-5-oxo-2-(pyridin-3-yl)pyrrolidine-3-carboxamide], for which the Emax at 100 µM in experiment [1] (setting [3]) was found to be 54%. The same compound yielded an IC50 in experiment [1] greater than 100000 nM. Moreover, the EC50 in experiment [2] was 0.501 nM.
